# Experimental data taken from patent US5053418A, “Antiprotozoal agents” (Burroughs Wellcome Co., priority 1983, dated 1991).
# Assays:
# P.falciparum = assay: In vitro activity against P.falciparum: inhibition of 3H-adenosine/3H-hypoxanthine incorporation (modified Desjardins); assay type: cell-based; conditions: for ED50 for Clopidol (4-pyridinol): 2580 min
# Method: Each of the two compounds to be tested were dissolved in ethanol at a concentration of 10 mg/L and serially diluted with RPMI 1640 medium and 10% (v/v) human plasma in microtitration plates. P.falciparum-parasitised and fresh blood cells were added together with ^3 H-adenosine or ^3 H-hypoxanthinein RPMI 1640 medium and 10% human plasma. The cultures were then incubated at 37° C. for 43 hours, harvested and the particulate contents collected on glass fibre filter papers which were washed copiously with water using a Cooke Microtiter System (Dynatech Labs. Europe); the filter papers were dried and the radioactivity measured using a scintillation counter. Infected, untreated and uninfected cultures were included as controls. Percent inhibition was correlated with dose to provide an IC50 for each drug alone.
# For subsequent combination experiments the individual drug solutions and mixtures thereof were serially diluted.
# By the method of Example 1 the effect of a number of naphthoquinone/clopidol (4-pyridinol) combinations on P.falciparum in vitro were determined.
# in vivo = conditions: rat, acute oral, rats
# Method: The acute oral LD50 's of compounds of formula (I) in rats were determined by standard techniques.
# P.yoelii = assay: In vivo effect on P.yoelii in mice (inhibition of parasitaemia)
# Method: The naphthoquinone and the pyridinol were each suspended in 0.25% (w/v) celacol in water by milling for 16-24 hours at 26° C. The suspensions were subsequently serially diluted with 0.25% (w/v) celacol in water. At time 0, 0.1 ml of a suspension of 10^7 P.yoelii-parasitised red blood cells/ml of phosphate buffered saline were injected intravenously into 15-20 g mice through a tail vein. Groups of 5 mice per treatment were dosed orally at times 6, 22, 30, 46, 54, 70 and 78 hours with 0.2 ml of the drug suspension. Tail-blood smears were taken at 96 hours, stained with Giemsa and the percentage of red blood cells infected determined and compared to untreated, infected controls. Percent inhibition was correlated with dose to provide ED50 values for each drug alone. In subsequent experiments dilutions of the two drugs, alone and in combination were used, and the percentage inhibition of parasitaemia and ED50 values (of each drug at fixed concentrations of the other) were determined. The results are shown respectively in Tables V and VI. A number of combinations of clopidol (4-pyridinol) and naphthoquinones were assayed and compared with each drug alone for their antimalarial effect against P.yoelii in vivo by the method of Example 4.
smiles,measurement,setting,value
"CC(C)(C)C1CCC(C2=C(O)C(=O)c3ccccc3C2=O)CC1 (stereo not drawn) [2-(4-t-butylcyclohexyl)-3-hydroxy-1,4-naphthoquinone]",inhibition at 15.6 pg/mL,"P.falciparum; Plasmodium falciparum, naphthoquinone alone, 0.0000156 mg/L",0.5%
same,inhibition at 32.5 pg/mL,"P.falciparum; Plasmodium falciparum, naphthoquinone alone, 0.0000325 mg/L",2%
same,% inhibition,"P.falciparum; naphthoquinone alone, 0.00003125 mg/L",5%
same,LD50,in vivo,> 1000 mg/kg
"Cc1nc(C)c(Cl)c(O)c1Cl [Clopidol, 3,5-dichloro-2,6-dimethyl-4-pyridinol, reference compound]",inhibition at 0.8 µg/mL,"P.falciparum; Plasmodium falciparum, 4-pyridinol alone, 0.80 mg/L",44%
same,inhibition at 1.6 µg/mL,"P.falciparum; Plasmodium falciparum, 4-pyridinol alone, 1.6 mg/L",55%
same,inhibition at 3.2 µg/mL,"P.falciparum; Plasmodium falciparum, 4-pyridinol alone, 3.2 mg/L",74%
same,% inhibition,"P.falciparum; clopidol (4-pyridinol) alone, 0.10 mg/L, listed as 4-pyridinol",24%
same,% inhibition,"P.falciparum; clopidol (4-pyridinol) alone, 0.20 mg/L, listed as 4-pyridinol",18%
same,% inhibition,"P.falciparum; clopidol (4-pyridinol) alone, 0.40 mg/L, listed as 4-pyridinol",22%
same,ED50 for Clopidol (4-pyridinol),P.falciparum; fixed naphthoquinone 0.0 mg/L (alone),1.18 (1.44 to 0.980) mg/L
same,ED50 for Clopidol (4-pyridinol),P.falciparum; fixed naphthoquinone 0.00781 mg/L,1.63 mg/L
same,ED50 for Clopidol (4-pyridinol),P.falciparum; fixed naphthoquinone 0.0156 mg/L,0.128 mg/L
same,ED50 for Clopidol (4-pyridinol),P.falciparum; fixed naphthoquinone 0.0313 mg/L,2.57 mg/L
same,ED50 for Clopidol (4-pyridinol),P.falciparum; fixed naphthoquinone 0.0625 mg/L,1.03 (14.2 to 0.405) mg/L
same,ED50 for Clopidol (4-pyridinol),P.falciparum; fixed naphthoquinone 0.125 mg/L,0.578 mg/L
same,ED50 for Clopidol (4-pyridinol),P.falciparum; fixed naphthoquinone 0.250 mg/L,0.074 mg/L
same,ED50 for Clopidol (4-pyridinol),P.falciparum; fixed naphthoquinone 0.500 mg/L,0.052 mg/L
same,ED50 for Clopidol (4-pyridinol),P.falciparum; fixed naphthoquinone 1.00 mg/L,0.0092 mg/L
same,ED50 for Clopidol (4-pyridinol),P.falciparum; fixed naphthoquinone 2.00 mg/L,0.00097 mg/L
same,ED50 for Clopidol (4-pyridinol),P.falciparum; fixed naphthoquinone 4.00 mg/L,0.00012 mg/L
same,inhibition in vivo at 1.9 mg/kg,"P.yoelii; Plasmodium yoelii, po, 96 h, clopidol alone, 1.9 mg/Kg/dose, 7 doses",6%
same,inhibition in vivo at 2.5 mg/kg,"P.yoelii; Plasmodium yoelii, po, 96 h, clopidol alone, 2.5 mg/Kg × 7",0%
same,inhibition in vivo at 3.7 mg/kg,"P.yoelii; Plasmodium yoelii, po, 96 h, clopidol alone, 3.7 mg/Kg/dose, 7 doses",17%
same,inhibition in vivo at 7.5 mg/kg,"P.yoelii; Plasmodium yoelii, po, 96 h, clopidol alone, 7.5 mg/Kg/dose, 7 doses",13%
same,inhibition in vivo at 13 mg/kg,"P.yoelii; Plasmodium yoelii, po, 96 h, clopidol alone, 13 mg/Kg × 7",5%
same,inhibition in vivo at 15 mg/kg,"P.yoelii; Plasmodium yoelii, po, 96 h, clopidol alone, 15 mg/Kg/dose, 7 doses",34%
same,inhibition in vivo at 30 mg/kg,"P.yoelii; Plasmodium yoelii, po, 96 h, clopidol alone, 30 mg/Kg/dose, 7 doses",61%
same,ED50 for Clopidol (4-pyridinol),P.yoelii; fixed naphthoquinone 0.000 (alone),22.5 (27.6 to 19.4) mg/Kg/dose
same,ED50 for Clopidol (4-pyridinol),P.yoelii; fixed naphthoquinone 0.019,13.8 (21.5 to 10.7) mg/Kg/dose
same,ED50 for Clopidol (4-pyridinol),P.yoelii; fixed naphthoquinone 0.0375,5.14 (6.22 to 4.23) mg/Kg/dose
same,ED50 for Clopidol (4-pyridinol),P.yoelii; fixed naphthoquinone 0.075,1.87 (2.45 to 1.30) mg/Kg/dose
same,ED50 for Clopidol (4-pyridinol),P.yoelii; fixed naphthoquinone 0.15,0.522 (0.946 to 0.0356) mg/Kg/dose
